The target in test [1] is T1, water-insoluble glucan producing enzyme (Streptococcus downei, UniProt P27470).
T1 construct: endogenous in cells; host or cells: Streptococcus mutans 6715 strain (today S. sobrinus), culture supernatant, ammonium sulfate precipitate, dialyzed
As to the kind of experiment: Effect of saccharides on formation of water-insoluble glucan from sucrose (Experiment 3). It counts as biochemical, Streptococcus mutans 6715 strain. The following applies: 1 ml 4 w/v % sucrose plus 1 ml 4 w/v % saccharide, 0.02 units enzyme, 37° C., 16 hours; for A: amounts of water-insoluble glucan formed: sucrose control 300. How it is done:
After completion of the cultivation, the culture was separated into cell precipitant and supernatant. Thereafter, to the supernatant was added with ammonium sulfate to give 60% saturation, and the resultant precipitant was dialyzed against 0.1M phosphate buffer (pH 7.2) to obtain an aqueous solution containing the enzyme.
The titers of the enzyme were assayed as follows: A mixture solution, consisting of 1 ml of 0.2M aqueous sucrose solution, 1 ml of water, 1 ml of 0.1M phosphate buffer containing 0.05 w/v % NaN3, and 0.5 ml of the enzyme solution (below 0.05 units), is incubated at 37° C. for 9 hours, followed by centrifugation of the reaction mixture. The resultant precipitant is mixed with 4 ml of 0.5N sodium hydroxide solution, and then incubated at this temperature for an additional one hour to dissolve the precipitant. The amount of water-insoluble glucan formed during the enzymatic reaction is then measured. One unit of the enzyme is defined as the amount of enzyme that transfers 1 μmole glucose from sucrose to the water-insoluble glucan in one minute.
Effects of some saccharides on the formation of water-insoluble glucan were tested: Water-insoluble glucan formation and inhibition thereof were determined according to the enzyme assay method as described in EXPERIMENT 1, except that the mixture solution contained sucrose, or sucrose and each saccharide as listed in TABLE I. The experiment was carried out as follows: A mixture solution, consisting of 1 ml of 4 w/v % aqueous sucrose solution, 1 ml of 4 w/v % aqueous solution of each saccharide as listed in TABLE I, 1.5 ml of 0.1M phosphate buffer containing 0.05 w/v % NaN3, and 0.5 ml of the enzyme solution (0.02 units), was incubated at 37° C. for 16 hours, and the water-insoluble glucan formation in the reaction mixture was determined according to the enzyme assy method.
In a control experiment, 1 ml of the above described saccharide solution was replaced with the same amount of water.
The inhibition degree was calculated with following equation:
Inhibition degree (%)=100-A/B×100
where A and B are respective amounts of the water-insoluble glucan formed (μg/ml) when the mixture solution contained sucrose or sucrose and each of the saccharides.

Test [2] concerns Streptococcus mutans 6715 strain. Put plainly: Organic acid formation from saccharides by Streptococcus mutans cells, pH-measurement (Experiment 4). The following applies: 37° C., 30 minutes; for organic acid formation from the saccharide: Streptococcus mutans 6715 cells; for pH-Level of the reaction mixture (organic acid formation): cell suspension, Stephan's buffer (pH 7.0), saccharide solution. It is filed as cell-based. How it is done: Organic acid formation from some saccharides by Streptococcus mutans was tested: Streptococcus mutans 6715 strain was cultivaed similarly as in EXPERIMENT 1, and the cells, obtained by centrifuging the culture, were washed with 0.9 w/v % sodium chloride solution, followed by additional centrifugation. Two ml of a mixture solution, consisting of 0.2 ml of the cell suspension, prepared from about 100 ml of the culture, 1.5 ml of Stephan's buffer, and 0.3 ml aqueous solution of each saccharide as listed in TABLE II, was incubated at 37° C. for 30 minutes, followed by pH-measurement of the reaction mixture. The Stephan's buffer was prepared by the method as reported by R. M. Stephan et al., Journal of Dental Research, Vol.26, pp.15-41 (1947): One ml of Solution I, prepared by dissolving 17.89 g Na2 HPO4. 12H2 O, 7.92 g KOH and 6.81 g KH2 PO4 in water to give a final volume of 100 ml, was placed in a 100-ml volumetric flask, and mixed with about 90 ml of water. To the flask was added 1 ml of Solution II, prepared by dissolving 4.54 g KH2 PO4, 0.32 g MgSO4.7H2 O, 0.57 g CaSO4.2H2 O and 10 ml of 3.5% hydrochloric acid solution in water to give a final volume of 100 ml. This mixture was diluted with additional water to obtain 100 ml of Stephan's buffer (pH 7.0).
The results are given in TABLE II, wherein the organic acid formation from the saccharides can be estimated by the pH-values.

Test [3] concerns the target T1, water-insoluble glucan producing enzyme. Put plainly: Effect of saccharides on formation of water-insoluble glucan from sucrose (Experiment 3). The conditions noted are these: saccharide reduced to 10% against sucrose: 1 ml 4 w/v % sucrose plus 1 ml 0.4 w/v % saccharide, 37° C., 16 hours. It is filed as biochemical, Streptococcus mutans 6715 strain.

T1 sequence (P27470 39-1592): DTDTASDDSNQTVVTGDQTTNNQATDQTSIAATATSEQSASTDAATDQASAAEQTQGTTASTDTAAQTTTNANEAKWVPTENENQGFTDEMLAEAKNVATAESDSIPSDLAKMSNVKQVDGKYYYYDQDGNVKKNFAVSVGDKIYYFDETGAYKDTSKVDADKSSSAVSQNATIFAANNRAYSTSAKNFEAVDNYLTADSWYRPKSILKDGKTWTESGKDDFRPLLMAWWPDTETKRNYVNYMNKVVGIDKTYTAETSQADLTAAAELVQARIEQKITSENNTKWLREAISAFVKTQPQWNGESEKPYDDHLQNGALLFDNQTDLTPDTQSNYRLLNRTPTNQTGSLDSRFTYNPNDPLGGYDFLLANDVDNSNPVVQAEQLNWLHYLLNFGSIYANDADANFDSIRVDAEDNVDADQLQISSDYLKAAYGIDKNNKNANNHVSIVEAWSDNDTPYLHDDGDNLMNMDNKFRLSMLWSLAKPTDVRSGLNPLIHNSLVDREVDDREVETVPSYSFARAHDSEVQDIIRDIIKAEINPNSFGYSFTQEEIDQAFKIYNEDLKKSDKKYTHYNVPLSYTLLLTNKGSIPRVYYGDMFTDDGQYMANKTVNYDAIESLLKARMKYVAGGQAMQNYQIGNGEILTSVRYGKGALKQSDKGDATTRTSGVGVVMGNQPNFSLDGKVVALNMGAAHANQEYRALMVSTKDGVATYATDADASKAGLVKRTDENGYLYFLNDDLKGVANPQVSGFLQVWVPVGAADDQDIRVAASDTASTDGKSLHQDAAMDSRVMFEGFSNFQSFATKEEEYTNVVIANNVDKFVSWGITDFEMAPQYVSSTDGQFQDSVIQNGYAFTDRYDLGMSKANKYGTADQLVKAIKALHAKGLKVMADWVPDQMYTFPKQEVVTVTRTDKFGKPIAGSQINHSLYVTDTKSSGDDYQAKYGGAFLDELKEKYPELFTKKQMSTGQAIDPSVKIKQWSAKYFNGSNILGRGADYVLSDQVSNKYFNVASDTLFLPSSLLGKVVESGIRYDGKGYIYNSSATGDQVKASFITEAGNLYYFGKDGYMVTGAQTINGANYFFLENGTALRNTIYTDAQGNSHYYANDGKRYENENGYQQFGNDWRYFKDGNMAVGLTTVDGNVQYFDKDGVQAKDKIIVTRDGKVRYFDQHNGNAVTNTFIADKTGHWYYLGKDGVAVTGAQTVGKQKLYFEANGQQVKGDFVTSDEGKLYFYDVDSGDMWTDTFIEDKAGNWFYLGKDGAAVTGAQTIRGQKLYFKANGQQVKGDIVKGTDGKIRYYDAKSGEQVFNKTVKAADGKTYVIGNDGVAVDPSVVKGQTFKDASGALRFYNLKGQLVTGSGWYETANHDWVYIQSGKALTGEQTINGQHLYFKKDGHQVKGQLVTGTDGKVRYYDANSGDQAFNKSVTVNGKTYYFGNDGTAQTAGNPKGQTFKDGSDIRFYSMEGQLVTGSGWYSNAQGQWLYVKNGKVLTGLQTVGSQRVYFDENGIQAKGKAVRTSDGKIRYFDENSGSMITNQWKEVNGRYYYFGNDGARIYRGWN

Take `OC[C@H]1O[C@H](OC[C@H]2O[C@H](OC[C@H]3O[C@H](OC[C@H]4OC(O)[C@H](O)[C@@H](O)[C@@H]4O)[C@H](O)[C@@H](O)[C@@H]3O)[C@H](O)[C@@H](O)[C@@H]2O)[C@H](O)[C@@H](O)[C@@H]1O` (stereo partly drawn) [Isomaltotetraose, 6^2 -O-α-isomaltosyl isomaltose]: the “A: amounts of water-insoluble glucan formed” value (from here on “A: amounts”) in test [1] was 18 µg/mL. Besides, in test [2], the “organic acid formation from the saccharide” value is given as “no organic acid formation” and the “pH-Level of the reaction mixture (organic acid formation)” value (shortened to “pH-Level of the reaction mixture”) is recorded as 7.0. The “C: inhibition degree of water-insoluble glucan formation” value (from here on “C: inhibition degree”) in test [3] is reported as 58%. Also, in test [3] (listed as isomaltotetraose), the “C: inhibition degree” value was 45-60%.
As for `OC[C@H]1O[C@H](OC[C@H]2O[C@H](O[C@H]3[C@H](O)[C@@H](O)[C@@H](O[C@H]4[C@H](O)[C@@H](O)C(O)O[C@@H]4CO)O[C@@H]3CO)[C@H](O)[C@@H](O)[C@@H]2O)[C@H](O)[C@@H](O)[C@@H]1O` (stereo partly drawn) [Isomaltosyl maltose, 4^2 -O-α-isomaltosyl maltose], in test [1], the “A: amounts” value worked out at 24 µg/mL. Further, the “organic acid formation from the saccharide” value in test [2] was “no organic acid formation”. The “pH-Level of the reaction mixture” value in test [2] stood at 7.0. The “C: inhibition degree” value is reported as 55% in test [3] and 45-60% in test [3] (listed as isomaltosyl maltose).
As for `OC[C@H]1O[C@H](OC[C@H]2O[C@H](OC[C@H]3OC(O)[C@H](O)[C@@H](O)[C@@H]3O)[C@H](O)[C@@H](O)[C@@H]2O)[C@H](O)[C@@H](O)[C@@H]1O` (stereo partly drawn) [Isomaltotriose], the “A: amounts” value in test [1] amounted to 36 µg/mL. For the same compound, in test [2], the “organic acid formation from the saccharide” value is listed as “no organic acid formation” and the “pH-Level of the reaction mixture” value was found to be 7.0. Besides, the “C: inhibition degree” value in test [3] is on record as 49%. Further, the “C: inhibition degree” value in test [3] (listed as isomaltotriose) is recorded as 45-60%.
As to `OC[C@H]1O[C@H](OC[C@H]2OC(O)[C@H](O)[C@@H](O)[C@@H]2O)[C@H](O)[C@@H](O)[C@H]1O` (stereo partly drawn) [Melibiose], the “A: amounts” value in test [1] came out at 300 µg/mL. The “pH-Level of the reaction mixture” value in test [2] is 7.0.
`OC[C@@H](O)[C@H](O)[C@@H](O)CO` [Xylitol]: in test [1], the “B: inhibition degree on water-insoluble glucan formation” value (shortened to “B: inhibition degree”) is recorded as 7% and the “A: amounts” value turned out to be 280 µg/mL. For the same compound, the “pH-Level of the reaction mixture” value in test [2] was determined as 7.0.
The corresponding values for `OC[C@H]1O[C@H](O[C@H]2[C@H](O)[C@@H](O)[C@@H](O[C@H]3[C@H](O)[C@@H](O)C(O)O[C@@H]3CO)O[C@@H]2CO)[C@H](O)[C@@H](O)[C@@H]1O` (stereo partly drawn) [Maltotriose] are 29%, 213 µg/mL and 5.0.
Consider `O=C(CO)[C@@H](O[C@H]1O[C@H](CO)[C@@H](O)[C@H](O)[C@H]1O)[C@H](O)[C@H](O)CO` [Turanose], for which, in test [1], the “B: inhibition degree” value is listed as 9% and the “A: amounts” value came out at 273 µg/mL. The “pH-Level of the reaction mixture” value in test [2] is on record as 7.0.
With `OC[C@@H](O)[C@@H](O)CO` [Erythlitol], in test [1], the “B: inhibition degree” value was found to be 3% and the “A: amounts” value came to 290 µg/mL. In addition, the “pH-Level of the reaction mixture” value in test [2] is 7.0.
Turning to `OC[C@H]1O[C@H](OC[C@H]2O[C@H](OC[C@H]3O[C@H](OC[C@H]4O[C@H](OC[C@H]5OC(O)[C@H](O)[C@@H](O)[C@@H]5O)[C@H](O)[C@@H](O)[C@@H]4O)[C@H](O)[C@@H](O)[C@@H]3O)[C@H](O)[C@@H](O)[C@@H]2O)[C@H](O)[C@@H](O)[C@@H]1O` (stereo partly drawn) [Isomaltopentaose, 6^3 -O-α-isomaltosyl isomaltotriose], in test [1], the “A: amounts” value is 15 µg/mL. In addition, in test [2], the “organic acid formation from the saccharide” value is “no organic acid formation” and the “pH-Level of the reaction mixture” value came out at 7.0. The “C: inhibition degree” value in test [3] amounted to 60%. The “C: inhibition degree” value in test [3] (listed as isomaltopentaose) was 45-60%.
Turning to `OC[C@H](O)[C@@H](O)[C@H](O)[C@H](O)CO[C@H]1O[C@H](CO[C@H]2O[C@H](CO)[C@@H](O)[C@H](O)[C@H]2O)[C@@H](O)[C@H](O)[C@H]1O` [Isomaltotriitol, 6-O-α-isomaltosyl glucitol], the “A: amounts” value in test [1] was found to be 60 µg/mL. In test [2], the “organic acid formation from the saccharide” value is “no organic acid formation” and the “pH-Level of the reaction mixture” value was 7.0.
For the compound `OC[C@H]1O[C@H](OC[C@H]2O[C@H](O[C@H]3[C@H](O)[C@@H](O)C(O)O[C@@H]3CO)[C@H](O)[C@@H](O)[C@@H]2O)[C@H](O)[C@@H](O)[C@@H]1O` (stereo partly drawn) [Panose, 4-O-α-isomaltosyl glucose], the “A: amounts” value in test [1] was 48 µg/mL. In test [2], the “organic acid formation from the saccharide” value is “no organic acid formation” and the “pH-Level of the reaction mixture” value came out at 7.0. The “C: inhibition degree” value in test [3] is 47%. Besides, in test [3] (listed as panose), the “C: inhibition degree” value is recorded as 45-60%.

The values are drawn from patent US4518581A, “Imparting low- or anti-cariogenic property to orally-usable products” (Kabushiki Kaisha Hayashibara Seibutsu Kagaku Kenkyujo, priority 1981, dated 1985).
